# Measurements from US9221836B2, “Heterocyclic compound and use thereof” (TAKEDA PHARMACEUTICAL COMPANY LIMITED, priority 2008, dated 2015).
# Positions count from the first letter of the chain named. Counter-ions that a name gives are not always drawn.
# Target: T1, plasma renin activity (PRA) (Macaca fascicularis, UniProt Q6DLS0)
# T1 sequence (Q6DLS0 67-406): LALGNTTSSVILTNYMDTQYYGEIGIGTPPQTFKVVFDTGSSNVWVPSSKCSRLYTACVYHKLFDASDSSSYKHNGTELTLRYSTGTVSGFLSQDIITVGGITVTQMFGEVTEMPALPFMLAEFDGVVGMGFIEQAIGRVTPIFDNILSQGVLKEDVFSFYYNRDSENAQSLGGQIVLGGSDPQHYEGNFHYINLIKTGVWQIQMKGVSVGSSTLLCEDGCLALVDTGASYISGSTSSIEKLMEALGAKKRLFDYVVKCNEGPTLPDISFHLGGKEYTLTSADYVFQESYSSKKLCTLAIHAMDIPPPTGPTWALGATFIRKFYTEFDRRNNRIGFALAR
# Test: not given
# Details: male Macaca fascicularis; 1 mg/kg orally in 0.5% methylcellulose; plasma 4 hr after administration; amended with vehicle group
row,SMILES,"Macaca fascicularis plasma renin activity: PPA inhibitory activity (%, n = 3-7) [%]"
1,"CC[C@@H](O)[C@H]1CNC[C@@H](N(CC(C)C)C(=O)c2nc3ccccc3n2CCCCOC)C1.Cl.Cl [Example 75-2, N-{(3S,5R)-5-[(1R)-1-hydroxypropyl]piperidin-3-yl}-1-(4-methoxybutyl)-N-(2-methylpropyl)-1H-benzimidazole-2-carboxamide dihydrochloride]",71
2,"COCCCCn1c(C(=O)N(CC(C)C)[C@@H]2CNC[C@H](C(O)COC)C2)nc2ccccc21 (stereo partly drawn) [Example 48, N-[(3S,5R)-5-(1-hydroxy-2-methoxyethyl)piperidin-3-yl]-1-(4-methoxybutyl)-N-(2-methylpropyl)-1H-benzimidazole-2-carboxamide dihydrochloride]",78
3,"COCCCCn1c(C(=O)N(CC(C)C)[C@@H]2CNC[C@H]([C@H](O)COC)C2)nc2ccccc21.Cl.Cl [Example 73-2, N-{(3S,5R)-5-[(1S)-1-hydroxy-2-methoxyethyl]piperidin-3-yl}-1-(4-methoxybutyl)-N-(2-methylpropyl)-1H-benzimidazole-2-carboxamide dihydrochloride]",90
4,"CCC(O)[C@H]1CNC[C@@H](N(CC(C)C)C(=O)c2nc3ccccc3n2CCCCOC)C1 (stereo partly drawn) [Example 76, N-[(3S,5R)-5-(1-hydroxypropyl)piperidin-3-yl]-1-(4-methoxybutyl)-N-(2-methylpropyl)-1H-benzimidazole-2-carboxamide dihydrochloride]",79
5,"COCCCCn1c(C(=O)N(CC(C)C)[C@@H]2CNC[C@H](C(=O)OCc3oc(=O)oc3C)C2)nc2ccccc21 [Example 7, (5-methyl-2-oxo-1,3-dioxol-4-yl)methyl (3R,5S)-5-[{[1-(4-methoxybutyl)-1H-benzimidazol-2-yl]carbonyl}(2-methylpropyl)amino]piperidine-3-carboxylate dihydrochloride]",93
6,"COCCCCn1c(C(=O)N(CC(C)C)[C@@H]2CNC[C@H](C(=O)N3CCCC3)C2)nc2ccc(OC)cc21 [Example 62, 6-methoxy-1-(4-methoxybutyl)-N-(2-methylpropyl)-N-{(3S,5R)-5-(pyrrolidin-1-ylcarbonyl)piperidin-3-yl}-1H-benzimidazole-2-carboxamide dihydrochloride]",75
7,"COCCCCn1c(C(=O)N(CC(C)C)[C@@H]2CNC[C@H](C(N)=O)C2)nc2ccccc21 [Example 25, N-[(3S,5R)-5-carbamoylpiperidin-3-yl]-1-(4-methoxybutyl)-N-(2-methylpropyl)-1H-benzimidazole-2-carboxamide dihydrochloride]",79
8,"COCCCCn1c(C(=O)N(CC(C)C)[C@@H]2CNC[C@H]([C@@H](C)O)C2)nc2ccccc21.Cl.Cl [Example 74-2, N-{(3S,5R)-5-[(1R)-1-hydroxyethyl]piperidin-3-yl}-1-(4-methoxybutyl)-N-(2-methylpropyl)-1H-benzimidazole-2-carboxamide dihydrochloride]",54
9,"COCCCCn1c(C(=O)N(CC(C)C)[C@@H]2CNC[C@H]([C@H](C)O)C2)nc2ccccc21.Cl.Cl [Example 74-1, N-{(3S,5R)-5-[(1S)-1-hydroxyethyl]piperidin-3-yl}-1-(4-methoxybutyl)-N-(2-methylpropyl)-1H-benzimidazole-2-carboxamide dihydrochloride]",90
10,"COCCCCn1c(C(=O)N(CC(C)C)[C@@H]2CNC[C@H](CO)C2)nc2ccccc21 [Example 40, N-[(3S,5R)-5-(hydroxymethyl)piperidin-3-yl]-1-(4-methoxybutyl)-N-(2-methylpropyl)-1H-benzimidazole-2-carboxamide dihydrochloride]",75
11,"COCCCCn1c(C(=O)N(CC(C)C)[C@@H]2CNC[C@H](C(=O)O)C2)nc2ccccc21 [Example 33, (3R,5S)-5-[{[1-(4-methoxybutyl)-1H-benzimidazol-2-yl]carbonyl}(2-methylpropyl)amino]piperidine-3-carboxylic acid dihydrochloride]",77
12,"COCCCCn1c(C(=O)N(CC(C)C)[C@@H]2CNC[C@H](C(=O)N3CCOCC3)C2)nc2ccccc21 [Example 10, 1-(4-methoxybutyl)-N-(2-methylpropyl)-N-[(3S,5R)-5-(morpholin-4-ylcarbonyl)piperidin-3-yl]-1H-benzimidazole-2-carboxamide dihydrochloride]",72
13,"COCCCCn1c(C(=O)N(CC(C)C)[C@@H]2CNC[C@H](C(=O)N3CCOCC3)C2)nc2ccc(OC)cc21 [Example 60, 6-methoxy-1-(4-methoxybutyl)-N-(2-methylpropyl)-N-{(3S,5R)-5-(morpholin-4-ylcarbonyl)piperidin-3-yl}-1H-benzimidazole-2-carboxamide dihydrochloride]",85
14,"COCCCCc1c(C(=O)N(CC(C)C)[C@@H]2CNC[C@H](C(=O)N3CCOCC3)C2)nnn1-c1ccccc1F.Cl [Example 233, 1-(2-fluorophenyl)-5-(4-methoxybutyl)-N-(2-methylpropyl)-N-[(3S,5R)-5-(morpholin-4-ylcarbonyl)piperidin-3-yl]-1H-1,2,3-triazole-4-carboxamide hydrochloride]",67
15,"COCCCCn1c(C(=O)N(CC2CC2)[C@@H]2CNC[C@H](C(=O)N3CCOCC3)C2)nc2ccccc21 [Example 253, N-(cyclopropylmethyl)-1-(4-methoxybutyl)-N-[(3S,5R)-5-(morpholin-4-ylcarbonyl)piperidin-3-yl]-1H-benzimidazole-2-carboxamide dihydrochloride]",77
16,"COCCCCn1c(C(=O)N(CC(C)C)[C@@H]2CNC[C@H]([C@@H](O)COC)C2)nc2ccccc21.Cl.Cl [Example 73-1, N-{(3S,5R)-5-[(1R)-1-hydroxy-2-methoxyethyl]piperidin-3-yl}-1-(4-methoxybutyl)-N-(2-methylpropyl)-1H-benzimidazole-2-carboxamide dihydrochloride]",77
17,"COCCCCn1c(C(=O)N(CC(C)C)[C@@H]2CNC[C@H](C(=O)N3CCCC3)C2)nc2cc(F)ccc21 [Example 18, 5-fluoro-1-(4-methoxybutyl)-N-(2-methylpropyl)-N-[(3S,5R)-5-(pyrrolidin-1-ylcarbonyl)piperidin-3-yl]-1H-benzimidazole-2-carboxamide dihydrochloride]",89
18,"COCCCCn1c(C(=O)N(CC(C)C)[C@@H]2CNC[C@H](C(=O)N3CCOCC3)C2)nc2ccc(F)cc21 [Example 11, 6-fluoro-1-(4-methoxybutyl)-N-(2-methylpropyl)-N-[(3S,5R)-5-(morpholin-4-ylcarbonyl)piperidin-3-yl]-1H-benzimidazole-2-carboxamide dihydrochloride]",89
19,"COCCCCn1c(C(=O)N(CC(C)C)[C@@H]2CNC[C@H](C(=O)N3CCCCC3)C2)nc2ccccc21 [Example 21, 1-(4-methoxybutyl)-N-(2-methylpropyl)-N-[(3S,5R)-5-(piperidin-1-ylcarbonyl)piperidin-3-yl]-1H-benzimidazole-2-carboxamide dihydrochloride]",85
20,"CC[C@H](O)[C@H]1CNC[C@@H](N(CC(C)C)C(=O)c2nc3ccccc3n2CCCCOC)C1.Cl.Cl [Example 75-1, N-{(3S,5R)-5-[(1S)-1-hydroxypropyl]piperidin-3-yl}-1-(4-methoxybutyl)-N-(2-methylpropyl)-1H-benzimidazole-2-carboxamide dihydrochloride]",86
21,"COCCCCc1c(C(=O)N(CC(C)C)[C@@H]2CNC[C@H](C(=O)N3CCOCC3)C2)nnn1-c1ccccc1Cl.Cl [Example 235, 1-(2-chlorophenyl)-5-(4-methoxybutyl)-N-(2-methylpropyl)-N-[(3S,5R)-5-(morpholin-4-ylcarbonyl)piperidin-3-yl]-1H-1,2,3-triazole-4-carboxamide hydrochloride]",62
22,"COCCCCn1c(C(=O)N(CC(C)C)[C@@H]2CNC[C@H](C(C)O)C2)nc2ccccc21 (stereo partly drawn) [Example 42, N-[(3S,5R)-5-(1-hydroxyethyl)piperidin-3-yl]-1-(4-methoxybutyl)-N-(2-methylpropyl)-1H-benzimidazole-2-carboxamide dihydrochloride]",70

# Target: T2, Human renin (Homo sapiens, UniProt P00797)
# T2 sequence (P00797 67-406): T1 sequence (Q6DLS0 67-406) with A2T, L148I, A169S
# Test: Human renin inhibition, angiotensin I quantified by EIA
# Details: read-out: Human renin inhibitory activity: inhibitory activity (%) at 0.1 μM
# Description: (6) Measurement of Renin Inhibition Value
# As a substrate for renin activity measurement, the angiotensinogen mentioned in (5) above was used. 1 μl each of the test compound (containing 100% DMSO) was added to each well of a 384-well plate (ABgene). Renin was diluted with a buffer solution for reaction (20 mM sodium phosphate (pH 7.4)) to a concentration of 57 pM, and 14 μl each of the dilution was added to each well. The dilution was left to stand at 37° C. for 10 min, and then 5 μl of each of a 6 μM solution of substrate angiotensinogen was added to each well to initiate the reaction. […] The amount of angiotensin I produced by an enzyme reaction was quantified by Enzyme Immuno Assay (EIA) described below.
# Anti-angiotensin I antibody (Peninsula Laboratories Inc.) diluted 5,000-fold with PBS was added to each well of a 384 well black plate (Nalge Nunc International Co., Ltd.) by 25 μl, and left standing overnight at 4° C. to immobilize the antibody in the plate. The antibody solution was removed, PBS solution (100 μl) containing 1% BSA was added to each well, and the mixture was left standing at room temperature for 2 hr for blocking. The blocking solution was removed, and each well was washed 5 times with 100 μl of 0.05% Tween20-PBS. […] Then, a biotinated angiotensin I solution (AnaSpec, 15 μl) prepared to 1.6 nM with a buffer [20 mM tris-hydrochloric acid (pH 7.4), 150 mM sodium chloride, 0.01% BSA, 0.05% Tween20] was added to each well, mixed with a plate mixer and left standing at room temperature for 1 hr. The solutions were removed from each well, and each well was washed 5 times with 100 μl of 0.05% Tween20-PBS. Horseradish peroxydase Streptavidin (PIERCE Biotecnology inc., 25 μl) diluted to 100 ng/ml with a buffer [20 mM tris-hydrochloric acid (pH 7.4), 150 mM sodium chloride, 0.1% BSA, 0.05% Tween 20] was added to each well and the mixture was left standing at room temperature for 30 min. The solutions were removed from each well, and each well was washed 5 times with 100 μl of 0.05% Tween20-PBS. SuperSignal ELISA femto Maximum Sensitivity Substrate (PIERCE Biotecnology Inc.) was added by 25 μl and luminescence intensity was measured by EnVision (Perkin Elmer Inc.). An analytical curve was drawn from the luminescence intensity of wells containing an angiotensin I standard solution, and the amount of angiotensin I produced by an enzyme reaction was calculated and used as an index of renin activity.
row,SMILES,inhibition at 0.1 µM [%]
1,"CC[C@@H](O)[C@H]1CNC[C@@H](N(CC(C)C)C(=O)c2nc3ccccc3n2CCCCOC)C1.Cl.Cl [Example 75-2, N-{(3S,5R)-5-[(1R)-1-hydroxypropyl]piperidin-3-yl}-1-(4-methoxybutyl)-N-(2-methylpropyl)-1H-benzimidazole-2-carboxamide dihydrochloride]",90
2,"COCCCCn1c(C(=O)N(CC(C)C)[C@@H]2CNC[C@H]([C@@H](C)O)C2)nc2ccccc21.Cl.Cl [Example 74-2, N-{(3S,5R)-5-[(1R)-1-hydroxyethyl]piperidin-3-yl}-1-(4-methoxybutyl)-N-(2-methylpropyl)-1H-benzimidazole-2-carboxamide dihydrochloride]",96
3,"COCCCCn1c(C(=O)N(CC(C)C)[C@@H]2CNC[C@H]([C@H](C)O)C2)nc2ccccc21.Cl.Cl [Example 74-1, N-{(3S,5R)-5-[(1S)-1-hydroxyethyl]piperidin-3-yl}-1-(4-methoxybutyl)-N-(2-methylpropyl)-1H-benzimidazole-2-carboxamide dihydrochloride]",94
4,"CC[C@H](O)[C@H]1CNC[C@@H](N(CC(C)C)C(=O)c2nc3ccccc3n2CCCCOC)C1.Cl.Cl [Example 75-1, N-{(3S,5R)-5-[(1S)-1-hydroxypropyl]piperidin-3-yl}-1-(4-methoxybutyl)-N-(2-methylpropyl)-1H-benzimidazole-2-carboxamide dihydrochloride]",95
